Experimental data published in patent US12201632B2, “Levoketoconazole for treatment of congenital adrenal hyperplasia and primary aldosteronism” (Strongbridge Dublin Limited, priority 2018, dated 2025).
Read-outs that look alike come from different tables or passages of the source.

Assays:
[1] = system: primary human adrenocortical carcinoma cultures; assay: Cortisol production in primary adrenocortical carcinoma cultures; type: cell-based
Method: (§1) To obtain primary cultures, adrenal specimens (adrenocortical adenomas, adrenal hyperplasias and adrenocortical carcinomas) were collected after adrenalectomy at the department of Surgery, Erasmus University Medical Center, Rotterdam, the Netherlands, between April 2016 and May 2018. The study was conducted under guidelines that have been approved by the Medical Ethics Committee of the Erasmus Medical Center and informed consent was obtained from all patients. Immediately after surgery, specimens were minced into small pieces of 2-3 mm^3, washed in culture medium and centrifuged for 5 minutes at 600 g. The tissue was stored overnight in culture medium at 4° C., where after the tissue was centrifuged again and the supernatant was removed. Fragments were dissociated using 10-25 ml collagenase type 1 (2 mg/ml: Sigma-Aldrich), followed by incubation at 37° C. for up to two hours. Ficoll (GE healthcare) density gradient separation was used once or twice as required in order to separate contaminating red blood cells from the tumor cells. Cell viability and cell amount were counted by trypan blue exclusion. Dissociated cells were plated at a density of 10^5 cells per well. ACTH-secreting corticotroph pituitary adenoma tissue from patients with Cushing's disease (n=2) was available after transsphenoidal surgery. Single-cell suspensions of the pituitary adenoma tissues were prepared as previously described in detail.
(§2) Owing to a limited number of cells obtained from the specimens, not all experiments were carried out in every primary culture.
(§3) Cortisol concentrations were measured in the supernatant using a chemiluminescence immunoassay system (Immulite 2000XPi; Siemens DPC Inc., Los Angeles, Calif., USA). In addition, we carried out multi-steroid analysis by liquid chromatography/mass spectrometry (LC/MS-MS) to accurately quantify androstenedione, corticosterone, cortisol, 11-deoxycortisol, DHEA, DHEAS, progesterone, 17-hydroxyprogesterone, and testosterone. Concentrations that were tested on the LC/MS-MS were closest to 50% inhibition or maximal inhibition of cortisol as determined by the immunoassay. Steroids were quantified with respect to a calibration series, with internal standards. Steroids were quantified on a Xevo TQS LC-MS/MS (Waters Chromatography).
(§4) Statistical analysis was performed using Graphpad Prism 6.0 (Graphpad Software, San Diego, CA). Non-linear regression curve fitting program was used to calculate the half maximal inhibitory concentrations (IC50) on cortisol production. Effects of both compounds on the steroid profile were measured as absolute change compared to control and compared using the Student's t-test. When assessing differences between effects of both compounds, the percentage change was evaluated and compared in order to correct for differences in the vehicle treated control cells. Values of P<0.05 were considered statistically significant and data are presented as mean SEM.

[2] = system: primary human corticotroph pituitary adenoma cultures; assay: Cell amount in primary corticotroph pituitary adenoma cultures; type: cell-based; conditions: corticotroph pituitary adenoma primary culture no. 2, 1 μM, 7 days
Method: as §1, with “ACTH-secreting corticotroph pituitary adenoma tissue from patients with Cushing's disease (n=2) was available after transsphenoidal surgery. Single-cell suspensions of the pituitary adenoma tissues were prepared as previously described in detail.” left out
(§5) As a measure of cell number, DNA concentrations were determined using the bisbenzimide fluorescent dye (Hoechst 33258, Sigma Aldrich), as previously described.

[3] = system: EAS associated adrenal hyperplasia cultures; assay: Cortisol production in primary EAS associated adrenal hyperplasia cultures; type: cell-based, human
Method: as §1, §2, §3, §4

[4] = system: primary human corticotroph pituitary adenoma cultures; assay: ACTH secretion corrected for cell number in primary corticotroph pituitary adenoma cultures; type: cell-based; conditions: both primary pituitary adenoma cultures, 1 μM, 7 days
Method: as §1, with “Ficoll (GE healthcare) density gradient separation was used once or twice as required in order to separate contaminating red blood cells from the tumor cells.” left out, “Dissociated cells were plated at a density of 10^5 cells per well. ACTH-secreting corticotroph pituitary adenoma tissue from patients with Cushing's disease (n=2) was available after transsphenoidal surgery. Single-cell suspensions of the pituitary adenoma tissues were prepared as previously described in detail.” left out
(§6) At the end of the AtT20 and primary pituitary adenoma culture experiments, medium was collected and supplemented with 1% of the protease inhibitor Trasylol to prevent degradation of ACTH. ACTH was measured using a commercially available, nonisotopic automatic chemiluminescence system (DPC Immulite).

[5] = system: AtT20 cells; assay: ACTH secretion corrected for cell amount in AtT20 cells; type: cell-based, mouse
Method: (§7) Human adrenocortical carcinoma HAC15 and mouse corticotroph AtT20 cells were used, purchased as a kind gift by Dr. W. Rainey, and obtained from Dr. J. Tooze (European Organization for Molecular Biology), respectively. Both cell lines were cultured in 75 cm^2 flasks at 37° C. in a humidified incubator (Greiner Bio-One, Alphen a/d Rijn, the Netherlands) at 5% CO2. Dulbecco's Modified Eagle Medium F12 containing 5% fetal calf serum was used for HAC15, whereas AtT20 cells were cultured in Dulbecco's minimal essential medium (DMEM) supplemented with 10% fetal calf serum. Both mediums were supplemented with L-glutamine (2 mmol/L) and penicillin (10^5 U/L). Short tandem repeat (str) profiling using a Powerplex Kit (Promega, Leiden, the Netherlands) of HAC15 and AtT20 gave results consistent with the ATCC database, confirming the identity of both cell lines. Medium and supplements were obtained from Invitrogen, Breda, the Netherlands. Once a week, cells were harvested with trypsin (0.05%)-EDTA (0.53 mM) and resuspended in culture medium. Levoketoconazole (COR-003) and racemic ketoconazole (both from Cortendo AB) were dissolved in absolute ethanol (EtOH), according to manufacturer's instructions, and stored at −20° C. at a stock concentration of […]. At the start of each experiment, both drugs were freshly prepared and diluted in EtOH in the correct concentrations. Synacten (synthetic ACTH, Novartis Pharma A.G.) stock concentration was stored at 4° C. and dissolved in culture medium at the day of use. The final concentrations of ACTH were chosen based on a dose-response curve in HAC15 cells and previously reported studies in the literature. For HAC15, 200,000 and 100,000 cells were plated in 0.5 ml medium in 24 well plates for experiments of 1 and 3 days, respectively. […]
as §6

[6] = system: HAC15 cells; assay: Cortisol production by HAC15 cells (immunoassay); type: cell-based, Human; conditions: HAC15, after 3 days of treatment (FIG. 1B)
Method: as §7
as §3, with “Concentrations that were tested on the LC/MS-MS were closest to 50% inhibition or maximal inhibition of cortisol as determined by the immunoassay.” left out
Statistical analysis was performed using Graphpad Prism 6.0 (Graphpad Software, San Diego, CA). […] Effects of both compounds on the steroid profile were measured as absolute change compared to control and compared using the Student's t-test. When assessing differences between effects of both compounds, the percentage change was evaluated and compared in order to correct for differences in the vehicle treated control cells. […]

[7] = cited from earlier work
[8] = system: HAC15 cells; assay: Cell number (DNA) of HAC15 cells; type: cell-based, Human; conditions: HAC15, 1 or 3 days, with or without ACTH
Method: Human adrenocortical carcinoma HAC15 and mouse corticotroph AtT20 cells were used, purchased as a kind gift by Dr. W. Rainey, and obtained from Dr. J. Tooze (European Organization for Molecular Biology), respectively. Both cell lines were cultured in 75 cm^2 flasks at 37° C. in a humidified incubator (Greiner Bio-One, Alphen a/d Rijn, the Netherlands) at 5% CO2. Dulbecco's Modified Eagle Medium F12 containing 5% fetal calf serum was used for HAC15, whereas AtT20 cells were cultured in Dulbecco's minimal essential medium (DMEM) supplemented with 10% fetal calf serum. Both mediums were supplemented with L-glutamine (2 mmol/L) and penicillin (10^5 U/L). Short tandem repeat (str) profiling using a Powerplex Kit (Promega, Leiden, the Netherlands) of HAC15 and AtT20 gave results consistent with the ATCC database, confirming the identity of both cell lines. Medium and supplements were obtained from Invitrogen, Breda, the Netherlands. Once a week, cells were harvested with trypsin (0.05%)-EDTA (0.53 mM) and resuspended in culture medium. […]
as §5

CC(=O)N1CCN(c2ccc(OC[C@@H]3CO[C@@](Cn4ccnc4)(c4ccc(Cl)cc4Cl)O3)cc2)CC1 (relative stereo) [levoketoconazole, 2S,4R cis-1-acetyl-4-[4-[[2-(2,4-dichlorophenyl)-2-(1H-imidazol-1-ylmethyl)-1,3-dioxolan-4-yl]methoxyl]phenyl]piperazine] showed an IC50 ([1]; ACC no. 1, basal condition, 3 days, read-out: IC50 inhibition of cortisol production) of 5.78 nM, an IC50 ([1]; ACC no. 2, basal condition, 3 days, read-out: IC50 inhibition of cortisol production) of 57.1 nM and an IC50 ([1]; ACC no. 3, ACTH (85 μM) stimulated condition, 3 days, read-out: IC50 inhibition of cortisol production) of 32.1 nM. The IC50 ([1]; ACC no. 3, basal condition, 3 days, read-out: IC50 inhibition of cortisol production) was 73.1 nM, the IC50 ([1]; basal condition, ACC (n=3), read-out: mean IC50 cortisol production) was 38.3 nM and the “effect on cell number” value [2] was “significantly inhibited cell number”. The IC50 ([3]; EAS associated hyperplasia no. 1, ACTH (85 μM) stimulated condition, 3 days, read-out: IC50 inhibition of cortisol production) was 79.9 nM, the IC50 ([3]; EAS associated hyperplasia no. 1, basal condition, 3 days, read-out: IC50 inhibition of cortisol production) was 27.7 nM and the IC50 ([3]; EAS associated hyperplasia no. 2, basal condition, 3 days, read-out: IC50 inhibition of cortisol production) was 22 nM. For the same compound, the IC50 ([3]; basal condition, EAS associated adrenal hyperplasia (n=2), read-out: mean IC50 cortisol production) was 25.7 nM, the “effects on ACTH secretion corrected for cell number” value [4] was “No effects” and the “Maximal inhibition of ACTH secretion” value ([5]; AtT20, 7 days of treatment with 10 μM, corrected for cell amount) was 38%. The “ACTH secretion corrected for cell amount” value ([5]; AtT20, after 3 days of treatment) was “showed inhibition of ACTH secretion”, the IC50 [6] was 300 nM and the “accumulation in a subject's body over repeated dosing” value [7] was “significantly less accumulation”. For the same compound, the “effects on cell number” value [8] was “no effects”.

In the case of CC(=O)N1CCN(c2ccc(OCC3COC(Cn4ccnc4)(c4ccc(Cl)cc4Cl)O3)cc2)CC1 (racemic) [racemic ketoconazole, Ketoconazole], the IC50 ([1]; Homo sapiens, 72 h, ACC no. 2, basal condition, 3 days, read-out: IC50 inhibition of cortisol production) is reported as 76.3 nM, the IC50 ([1]; Homo sapiens, 72 h, ACC no. 3, basal condition, 3 days, read-out: IC50 inhibition of cortisol production) is reported as 67.6 nM and the “effect on cell number” value [2] is reported as “not observed”. The IC50 ([3]; Homo sapiens, 72 h, EAS associated hyperplasia no. 1, ACTH (85 μM) stimulated condition, 3 days, read-out: IC50 inhibition of cortisol production) was 106 nM, the IC50 ([3]; Homo sapiens, 72 h, EAS associated hyperplasia no. 1, basal condition, 3 days, read-out: IC50 inhibition of cortisol production) was 26.2 nM and the IC50 ([3]; Homo sapiens, 72 h, EAS associated hyperplasia no. 2, basal condition, 3 days, read-out: IC50 inhibition of cortisol production) was 29.6 nM. The “effects on ACTH secretion corrected for cell number” value [4] was “No effects”, the inhibition at 10 µM ([5]; Mus musculus, 168 h, AtT20, 7 days of treatment with 10 μM, corrected for cell amount, read-out: Maximal inhibition of ACTH secretion) was 34% and the IC50 ([6]; Homo sapiens, 72 h) was 611 nM. For the same compound, the “accumulation in a subject's body over repeated dosing” value [7] was “accumulate in a subject's body over repeated dosing” and the “effects on cell number” value [8] was “no effects”.
